Marks after values point to notes of the source that are not given here.
Test system: Escherichia coli septic shock in dogs
Assay: In-vivo model of Escherichia coli septic shock in dogs
Parameters: species or system dog
Settings: for PCO2: arterial; for Urine-volume: per hour
Excerpt: We have thus far studied 5 dogs in septic shock in which ethyl gallate was infused. We have compared the results obtained in this group with those found in septic animals (n=5) in which this treatment was not given. In addition, in preliminary experiments, we have looked at the effect of ethyl gallate infusion on hemodynamics in non-septic animals (n=3). In a time control non-septic group in which placebo (normal saline solution) was given, we have studied one animal.
The E coli model used in the studies was identical to that previously described (2). Sepsis was induced by the intravenous infusion of 10^10 colony forming units of live E coli (designation 011:B4). The bacteria were suspended in normal saline solution and were given over 0.5 hour. A constant infusion of approximately 5×10^9 colony forming units/hour of E coli was then maintained over the duration of the two studies.
The animals (16-24 kg) were initially anesthetized with thiopental sodium (20 mg/kg, intravenously) and constantly infused with sufentanil citrate (1-3 μg/min) and midazolam (5 μg/kg/min) (2). Drug rates were adjusted as required to abolish the palpebral reflex. The animals were placed in the supine position; the trachea was […] with an endotracheal tube; and the lungs were mechanically ventilated at a tidal volume of 20 ml/kg. The ventilator rate was initially set to maintain blood pH at approximately 7.35. The rate was increased as necessary to reverse the metabolic acidosis that developed over the course of the study. Approximately 100% oxygen was inspired, so that hypoxemia would not affect the results of the study.
Under sterile conditions and by percutaneous techniques (Arrow International, Reading, Pa.) (2), a thermister tipped catheter was advanced from the right jugular vein into the pulmonary artery to measure mean pulmonary arterial pressure (Ppa), mean pulmonary capillary wedge pressure (Pwp), mean right atrial pressure (Rap), and thermodilution cardiac output (CO) (Edwards Lifesciences, Irvine, Calif.). Another introducer was placed into the left jugular vein for administration of intravenous saline solution, the E coli infusion, and the treatment or placebo drugs. A catheter was placed into the bladder through the urethra to measure urine output over the course of the study. A polyethylene catheter was percutaneously placed into the femoral artery to measure MAP and to obtain samples of blood for arterial PO2, PCO2, pH, hematocrit (Hct), serum electrolytes and creatinine, liver function tests, and lactate concentrations. The laboratory tests were performed by the clinical laboratories at the Health Sciences Centre.
All vascular catheters were connected to transducers (Cobe, Argon Medical Devices Inc, Athens, Tex.), were referenced relative to the left atrium, and were connected to a chart recorder (Astro-Med, W Warwick, R.I.) (2). Heart rate (HR) was measured from the recorder tracing. Stroke-volume (SV) was calculated as CO/HR. Systemic vascular resistance (SVR) was calculated from [(MAP−Pra)/CO]*80.
Stroke work (SW) was our primary index of cardiac performance and the primary hemodynamic endpoint chosen (2). At constant preload, SW reflects both the decrease in afterload and the change in contractile function that accompany sepsis. SW was determined at approximately the same Pwp at each measurement interval. The baseline Pwp usually averaged ≈8-10 mmHg, and normal saline solution was given as necessary to maintain Pwp constant over the experimental period. SW was calculated from SV*(MAP−Pwp).
The purpose of this study was to determine whether ethyl-gallate could reverse the fall in MAP that occurs in this sepsis model. Ethyl gallate was infused after MAP pressure fell approximately 30 to 40% from the baseline value in which this decline in MAP was not responsive to volume infusion to return Pwp to the baseline value (septic shock condition). […]

[1] = septic dogs n = 5, 3 hrs post treatment
[2] = septic dogs n = 5, 5 hrs post treatment
[3] = septic dogs n = 5, Baseline (before sepsis and treatment)
[4] = septic dogs n = 5, septic shock (before treatment)
[5] = septic dogs n = 5, 1 hr post treatment
[6] = septic dogs n = 5, 2 hrs post treatment
[7] = septic dogs n = 5, 4 hrs post treatment
[8] = septic dogs, ethyl-gallate treated group

## CCOC(=O)c1cc(O)c(O)c(O)c1 [ethyl gallate]
2 gram intravenous bolus after 5 hours of septic shock, one animal
  duration of increase in mean arterial pressure after bolus: over 75 minutes
[1]
  PCO2: 21 ± 2*# mmHg
  Urine-volume: 42 ± 19 mL
  ALT: 210 ± 90 IU
  AST: 268 ± 162 IU
  Alk P'tase: 54 ± 36 international units
  Arterial pH: 7.21 ± .08*
  HR: 107 ± 34 beats/min
  LD: 253 ± 172* IU
  Platelets: 100 ± 37* ×10^9/L
  Ppa: 21 ± 6 mmHg
  Rap: 8.8 ± 0.8 mmHg
  WBC: 2.1 ± 1.9 ×10^9/L
  bilirubin: 11 ± 4.5* mmol/L
  chloride: 130 ± 6* mmol/L
  glucose: 4.4 ± 1.5 mmol/L
  sodium: 152 ± 5 mmol/L
  total CO2: 14 ± 2* mmol/L
[2]
  PCO2: 19 ± 2* mmHg
  Urine-volume: 36 ± 26 mL
  ALT: 236 ± 56 IU
  AST: 337 ± 141 IU
  Alk P'tase: 91 ± 39* international units
  Arterial pH: 7.14 ± .06*
  HR: 110 ± 34 beats/min
  LD: 335 ± 175* IU
  Platelets: 74 ± 21* ×10^9/L
  Ppa: 23 ± 7* mmHg
  Rap: 8.6 ± 1.3 mmHg
  WBC: 2.64 ± 2.3 ×10^9/L
  chloride: 130 ± 7* mmol/L
  glucose: 3.6 ± 2.2 mmol/L
  sodium: 153 ± 6 mmol/L
  total CO2: 14 ± 2* mmol/L
[3]
  PCO2: 29 ± 4 mmHg
  ALT: 52 ± 20 IU
  AST: 18 ± 4 IU
  Alk P'tase: 31 ± 11 international units
  HR: 59 ± 8* beats/min
  LD: 26 ± 4 IU
  Platelets: 196 ± 18 ×10^9/L
  Ppa: 16 ± 1.3 mmHg
  Rap: 9 ± 1.2 mmHg
  WBC: 3.2 ± 1.9 ×10^9/L
  chloride: 118 ± 3 mmol/L
  glucose: 5.5 ± 0.3 mmol/L
  sodium: 151 ± 2 mmol/L
  total CO2: 21 ± 3 mmol/L
[4]
  PCO2: 27 ± 4 mmHg
  Urine-volume: 45 ± 34 mL
  ALT: 139 ± 116 IU
  AST: 137 ± 130 IU
  Alk P'tase: 41 ± 27 international units
  Arterial pH: 7.26 ± .06*
  HR: 145 ± 33 beats/min
  LD: 128 ± 82 IU
  Platelets: 117 ± 27* ×10^9/L
  Ppa: 15 ± 2.3 mmHg
  Rap: 7 ± 1.3 mmHg
  WBC: 1.3 ± 0.7 ×10^9/L
  chloride: 123 ± 8*+ mmol/L
  glucose: 5.3 ± 0.3 mmol/L
  sodium: 150 ± 7+ mmol/L
  total CO2: 18 ± 2* mmol/L
Bolus after the study was completed, one animal of placebo group
  duration of increase in MAP after bolus: over 1 hr
Individual septic dog, FIG. 2
  time in which infusion increased arterial pressure: approximately 18 minutes
[5]
  Urine-volume: 67 ± 58 mL
  HR: 116 ± 47 beats/min
  Ppa: 18 ± 4.8 mmHg
  Rap: 8 ± 1.3 mmHg
[6]
  Urine-volume: 42 ± 19 mL
  HR: 111 ± 33 beats/min
  Ppa: 18 ± 5 mmHg
  Rap: 8.6 ± 1.7 mmHg
[7]
  Urine-volume: 36 ± 26 mL
  HR: 115 ± 36 beats/min
  Ppa: 21 ± 9 mmHg
  Rap: 9.2 ± 1.1 mmHg
Septic dogs
  dogs that died over the course of the study: None
Septic dogs, between the two groups
  urine output: no difference
Septic dogs, by 1 hour post-treatment, remained over the course of study
  mean arterial pressure (MAP): returned to the baseline value
Septic dogs, end of the study, vs non-ethyl gallate treated group
  serum haemoglobin concentration: higher
Septic dogs, ethyl gallate infusion
  time post infusion by which increase in MAP was evident: ≤ 20 min
[8]
  cardiac output (CO): did not fall
  stroke volume (SV): did not fall
Septic dogs, over the 5 post-treatment measurement intervals, vs non-treated group
  stroke work (SW): generally higher
Septic dogs, over the course of the study
  serum creatinine: decreased
Septic dogs, vs non-treated group
  creatine kinase (CK), evidence of rhabdomyolysis: less
Septic dogs, vs 4.7±0.8 L in non-treated group, P<0.05
  normal saline required to maintain Pwp at the baseline value: 3.38 ± 0.8 L
Septic dogs, vs septic shock condition and vs non-treated septic group
  systemic vascular resistance (SVR): significantly increased

Source: patent US20120277312A1, “Ethylgallate and Related Compounds as a Treatment for Sepsis and Septic Shock” (priority 2009, published 2012)
